Data reported in US9289444B2, “Composition for promoting hematogenesis containing quercetin 3-O-β-(2″-galloyl)-rhamnopyranoside as active ingredient” (Chungbuk National University Industry Academic Cooperation …, priority 2011, dated 2016).

How the values were obtained:
BMNCs [1] = test: Cell viability assay (CCK-8), normoxia or hypoxia; format: cell-based, mouse
Text: Bone marrow mononuclear cells (BMNCs) were isolated from femurs and tibias of 8 to 12-week-old male C57BL/6 mice by a previously described protocol [Kroeger K, Collins M, Ugozzoli (2009) The preparation of primary hematopoietic cell cultures from murine bone marrow for electroporation. J. Vis. Exp. 23: pii:1026. doi:10.3791/1026] and were separated from dead cells and red blood cells (RBCs) by Histopaque ([…]) (Sigma-Aldrich Chemical, St. Louis, Mo., USA) density gradient centrifugation. Thereafter, the cells were cultured in Iscove's modified Dulbecco's media (IMDM) with 15% heat inactivated fetal bovine serum (FBS), 1% bovine serum albumin (BSA), 100 units/ml penicillin and 100 μg/ml streptomycin at 37° C. in 5% CO2 humidified air. The separated blood was cultured as described previously [Oswald J, et al. (2004). Mesenchymal stem cells can be differentiated into endothelial cells in vitro. Stem Cells, 22: 377-384.] to obtain bone marrow stromal cells in α-minimum essential medium (MEM) with 20% heat inactivated FBS, 100 units/ml penicillin and 100 μg/ml streptomycin at 37° C. in 5% CO2 humidified air.
The possible cytotoxicity of QGR was examined in BMNCs. The cells were plated with a density of 5×10^3 cells/well in 96 well plates in 200 μl of medium. The cells cultured for 24 hrs with variable concentrations of QGR in either normoxia or hypoxia conditions were evaluated using a cell counting-8 assay kit (CCK-8) according to the manufacturer's instructions (Dojindo Molecular Technologies, Rockville, Md., USA). Briefly, 20 μl of CCK-8 solution was added to each well. The plates were incubated for 2 hrs in an incubator at 37° C. The resulting color was assayed at 450 nm using an EL808 microplate absorbance reader (BIO-TEK, Winooski, Vt., USA).

BMNCs [2] = test: Histochemistry (Wright-Giemsa) and immunocytochemistry for erythroid cells (TER-119); format: cell-based, mouse; settings: 7 days culture
Protocol: In order to investigate whether QGR can stimulate the differentiation of hematopoietic stem cells into erythroid cells, the morphology of cells was observed and immunocytochemistry against TER-119, the marker of erythroid progenitors, was carried out. BMNCs were harvested 7 days after incubation with either rEpo (3 units/ml) or QGR (100 or 200 μM/ml) washed with PBS, re-suspended at a concentration of 2×10^5 cells/ml in PBS and subjected (100 μl/slide) to cytospin for 5 min at 1,000 rpm (Cytospin3; Shandon, ThermoElectron, Waltham, Mass., USA). All slides were fixed using cold methanol. Wright-Giemsa stain was performed for morphologic analysis. Immunocytochemistry against TER-119 was carried out for cellular lineage with 100-fold dilution according to the manufacturer's instruction using avidin biotinylated enzyme complex kit (VECTASTAIN, Vector Laboratories and Burlingame, Calif., USA).

BMNCs [3] = test: Flow cytometric analysis for cells positive for TER-119; format: cell-based, mouse; settings: 7 days, 100 or 200 μM/ml, dose-dependently, vs negative control
Protocol: To confirm the differentiation of mouse HSCs or EPCs into erythroid cells by QGR treatment, flow cytometric analysis for mouse anti-TER-119 was performed. BMNCs were cultured with either rEpo (3 units/ml) or QGR (100 or 200 μM/ml) in 6-well plates. Cells were harvested at day 7, washed with PBS, re-suspended at concentration of 1×10^5 cells/ml in 100 μl of PBS containing 0.02% sodium azide and 2% FBS, incubated with 10 μl of mouse anti-CD16/CD32 Ab (eBioScience, San Diego, Calif., USA) as Fc receptor blocker for 3 min at room temperature and incubated with PE-conjugated anti-TER-119 Ab for 20 min at 4° C. Flow cytometric analysis was performed using FACS Calibur (Becton Dickinson, Oxnard, Calif., USA) and the percentage of positively stained cells was determined.

[4] = tested on: bone marrow failure mouse induced by busulphan (BU); test: Peripheral blood analysis in bone marrow failure model induced by busulphan (BU); format: in vivo, Balb/c mice
Text: 5-week-old female Balb/c mice were purchased from Orient Bio Inc. (Seongnam-si, Gyeonggi-do, Korea). All protocols of animal experiments were approved by Institutional Animal Care and Use Committee of Laboratory Animal Research Center, Chungbuk National University. The mice were fed by Teklad Global 18% protein rodent diet (Harlan, Iowa, USA) and had free access to drinking water. The mice were housed and bred under specific pathogen-free conditions, and were went through environmental acclimatization for one week before used in the animal experiments and were separated into three groups (n=70/group).
Bone marrow failure model induced by administering busulphan (BU) was designed according to the procedures previously described by Molyneux et al (Cell Biol Toxicol 27, 13-40, 2011) and the scheme is shown in FIG. 8. BU (Sigma chemicals, Poole, Dorset, UK) was dissolved in acetone to a final concentration of 18.8 mg/ml, diluted five-fold with distilled water, and was intraperitoneally administered three times for 5 days with the dose of 0.2 ml BU solution per mouse. Equal amount of five-fold diluted acetone solution without BU was administered to vehicle control group. QGR was dissolved in dimethylsulfoxide and diluted with distilled water to a final concentration of 1.25%. Mice were orally administered every two days with QGR (0.25 mg/mouse) for 63 days. Seven or eight mice were sacrificed on days of 1, 5, 10, 16, 25, 40, 49, and 63 after BU administration and were investigated to confirm the effect of QGR to recover bone marrow failure.
In order to evaluate the activity of QGR to recover anemia animal model induced by BU administration, peripheral blood was collected during an autopsy and were investigated. The collected peripheral blood was stored in the bottle containing EDTA to prevent a blood clotting, and the numbers of erythrocytes, leukocytes, and platelets, hematocrit (HCT) level, mean corpuscular volume (MCV), and mean corpuscular hemoglobin (MCH) were measured.

[5] = tested on: unopsonized zymosan-stimulated human monocytes; settings: cited from earlier work
[6] = tested on: lipopolysaccharide (LPS)-stimulated RAW 264.7 macrophage cells; settings: cited from earlier work
LPS-induced Balb/c mice = settings: cited from earlier work
[7] = QGR 0.25 mg/mouse orally after BU

CC1OC(Oc2c(-c3ccc(O)c(O)c3)oc3cc(O)cc(O)c3c2=O)C(OC(=O)c2cc(O)c(O)c(O)c2)C(O)C1O (stereo not drawn) [QGR, quercetin 3-O-β-(2″-galloyl)-rhamnopyranoside]
cell viability (BMNCs [1]; 50 μM, 24 hrs): significantly increased cell viability | cytotoxicity (BMNCs [1]; BMNCs, 24 hrs, various concentrations): not cytotoxic | cell viability after hypoxic damage (BMNCs [1]; QGR post-treatment 200 μM, hypoxic damage for 24 hrs): increased cell viability | viable cells under hypoxic damage (BMNCs [1]; QGR pretreatment, hypoxic damage 24 hrs, vs untreated group, dose-dependent): increased the viable cells | number of enucleated erythroid cells (BMNCs [2]; Wright-Giemsa staining): increased | TER-119+ cells (immunocytochemical analysis) (BMNCs [2]; vs negative control): increased | ratio of TER-119+ cells (flow cytometric analysis) (BMNCs [3]): significantly increased | mean corpuscular volume (MCV) ([4]; BU group vs BU+QGR group): BU administration group are significantly lower than those of BU+QGR administration group | leukocyte numbers vs normal control group [4, 7]: slightly lower | recovery effect of leukocyte level, onset [4, 7]: ≥ 10 days | recovery effect on erythrocyte level, onset [4, 7]: ≥ 5 days | recovery of reduced platelet numbers, onset [4, 7]: ≥ 16 days | erythrocyte level vs normal control group ([4]; QGR 0.25 mg/mouse orally every two days after BU): slightly lower | erythrocyte level vs positive control group (BU + vehicle) ([4]; QGR 0.25 mg/mouse orally every two days, days 5, 10, 16, 25, 49, 63): significantly higher | leukocyte numbers vs positive control group (BU + vehicle) ([4]; day 10 up to day 63): higher level | hemoglobin (HGB) level ([4]; pattern similar to erythrocytes): recovered the anemia | platelet numbers ([4]; vs positive control group (BU + vehicle), significant differences continuously): steeply recovered | superoxide production [5]: inhibiting | nitric oxide production [6]: inhibiting | nitric oxide production (LPS-induced Balb/c mice): inhibiting
